The source of these data is patent publication US20160199372A1, “IMIDAZOPYRIDAZINE KINASE INHIBITORS USEFUL TO TREATING A DISEASE OR DISORDER MEDIATED BY AAK1, SUCH AS ALZHEIMER'S DISEASE, BIPOLAR DISORDER, PAIN, SCHIZOPHRENIA” (Bristol-Myers Squibb Company, priority 2013, published 2016).

A word on the IC50: it is the concentration that inhibits the measured activity by half. A lower IC50 goes with inhibition by little substance.

The test system of assay [1] is mice. The experiment in a line: formalin paw test (pain response). The assay is classed as in vivo, mouse. The note with it: administered 30 minutes prior to formalin injection, % response relative to gabapentin 200 mg/kg. The protocol: AAK1 homozygous (−/−) and their wild-type (+/+) littermates were tested using the formalin paw test in order to assess their acute and tonic nociceptive responses. For these tests, Automatic Nociception Analyzers (purchased from the Ozaki lab at University of California, San Diego) were used. A metal band was placed around the left hind paw of each mouse 30 minutes prior to testing. After the 30-minute acclimation period, 20 μl of 5% formalin is subcutaneously injected in the dorsal surface of the left hind paw. Mice were individually housed in cylindrical chambers for 45 minutes. Fresh 5% formalin solution was prepared by diluting formaldehyde (Formalde-fresh 20%, Fisher Scientific, Fair Lawn, N.J.) with distilled water. Investigatory compounds were administered 30 minutes prior to formalin injection.
A computer recorded flinches per minute, total flinches for phase I (acute phase=first 8 minutes), and total flinches for phase II (tonic phase=time between minutes 20-40 or 10-60 minutes for drug studies) through an electromagnetic field. See Yaksh T L, Ozaki G, McCumber D, Rathbun M, Svensson C, Malkmus S, Yaksh M C. An automated flinch detecting system for use in the formalin nociceptive bioassay. J Appl Physiol., 2001; 90:2386-402.
The same test was used to confirm that the administration of an AAK1 inhibitor can also affect pain response. […]

Assay [2] concerns the target T1, GST-Xa-hAAK1 (Homo sapiens, UniProt Q2M2I8).
T1 construct: made in house
The experiment in a line: AAK1 Kinase Assay. The assay is classed as biochemical. The note with it: ATP 22 μM; GST-Xa-hAAK1 3.5 nM; 3 hours at room temperature; Caliper LabChip 3000. The source says: IC50 values were derived by non-linear regression analysis.

Each structure is given as a SMILES string.

T1 sequence (Q2M2I8 whole entry): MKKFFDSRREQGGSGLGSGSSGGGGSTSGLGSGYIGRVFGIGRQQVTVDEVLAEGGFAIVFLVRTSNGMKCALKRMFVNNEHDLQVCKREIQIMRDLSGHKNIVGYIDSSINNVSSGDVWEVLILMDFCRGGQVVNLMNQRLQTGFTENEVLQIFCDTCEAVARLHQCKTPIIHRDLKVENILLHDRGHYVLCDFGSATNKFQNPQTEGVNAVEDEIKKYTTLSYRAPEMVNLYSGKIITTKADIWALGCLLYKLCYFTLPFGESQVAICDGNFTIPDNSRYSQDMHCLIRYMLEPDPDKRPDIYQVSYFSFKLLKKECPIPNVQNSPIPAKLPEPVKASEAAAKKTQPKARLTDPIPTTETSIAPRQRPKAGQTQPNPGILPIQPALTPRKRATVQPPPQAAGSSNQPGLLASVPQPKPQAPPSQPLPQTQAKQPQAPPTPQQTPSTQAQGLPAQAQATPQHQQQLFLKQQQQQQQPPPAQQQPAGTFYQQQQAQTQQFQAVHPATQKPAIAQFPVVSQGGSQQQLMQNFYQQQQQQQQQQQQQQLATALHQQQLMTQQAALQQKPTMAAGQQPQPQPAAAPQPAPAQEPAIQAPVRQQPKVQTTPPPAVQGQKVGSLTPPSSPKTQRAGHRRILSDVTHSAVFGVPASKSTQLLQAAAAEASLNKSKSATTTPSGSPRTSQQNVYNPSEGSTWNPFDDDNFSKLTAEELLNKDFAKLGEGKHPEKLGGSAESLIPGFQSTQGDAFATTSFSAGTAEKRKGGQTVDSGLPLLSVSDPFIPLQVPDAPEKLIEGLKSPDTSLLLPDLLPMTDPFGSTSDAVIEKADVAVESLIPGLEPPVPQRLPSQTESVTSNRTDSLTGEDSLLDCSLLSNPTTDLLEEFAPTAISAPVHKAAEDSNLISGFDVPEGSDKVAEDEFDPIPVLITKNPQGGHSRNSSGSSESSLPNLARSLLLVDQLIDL

In assay [1] (200 mg/kg sc), `NCC1(CC(=O)O)CCCCC1` [Gabapentin, reference compound] returned a Response of 73%.
In the case of `CC(C)c1nc(-c2cccc(NC(=O)c3cnc4c(Nc5ccccc5)cc(N[C@H]5CC[C@H](N)CC5)nn34)c2)co1` [Example 3, 6-(trans-4-Aminocyclohexylamino)-N-(3-(2-isopropyloxazol-4-yl)phenyl)-8-(phenylamino)imidazo[1,2-b]pyridazine-3-carboxamide], in assay [2], the half-maximal inhibitory concentration (IC50) came to 94 nM.
The molecule `CN(C)[C@H]1CC[C@H](Nc2cc(Nc3ccccc3)c3ncc(-c4ccsc4)n3n2)CC1` [Example 19, N^6-(trans-4-(Dimethylamino)cyclohexyl)-N^8-phenyl-3-(thiophen-3-yl)imidazo[1,2-b]pyridazine-6,8-diamine] gave an IC50 in assay [2] of 12 nM.
For `CNc1cc(N[C@H]2CC[C@H](N)CC2)nn2c(C(=O)Nc3cccc(-c4nnn(C(C)C)n4)c3)cnc12` [Example 9, 6-(trans-4-Aminocyclohexylamino)-N-(3-(2-isopropyl-2H-tetrazol-5-yl)phenyl)-8-(methylamino)imidazo[1,2-b]pyridazine-3-carboxamide], the IC50 in assay [2] was found to be 8 nM.
The same measure, in the same setting: under `N[C@H]1CC[C@H](Nc2cc(Nc3ccccc3)c3ncc(C(=O)Nc4cccc(-c5coc(-c6ccccc6)n5)c4)n3n2)CC1` [Example 6, 6-(trans-4-Aminocyclohexylamino)-8-(phenylamino)-N-(3-(2-phenyloxazol-4-yl)phenyl)imidazo[1,2-b]pyridazine-3-carboxamide] stands 940 nM; under `CNc1cc(N[C@H]2CC[C@H](N)CC2)nn2c(C(=O)Nc3cccc(-c4nnc(C(C)C)s4)c3)cnc12` [Example 8, 6-(trans-4-Aminocyclohexylamino)-N-(3-(5-isopropyl-1,3,4-thiadiazol-2-yl)phenyl)-8-(methylamino)imidazo[1,2-b]pyridazine-3-carboxamide], 8.9 nM.
Regarding `CC(C)n1nnc(-c2cccc(NC(=O)c3cnc4ccc(N[C@H]5CC[C@H](N)CC5)nn34)c2)n1` [Example 13, 6-(trans-4-Aminocyclohexylamino)-N-(3-(2-isopropyl-2H-tetrazol-5-yl)phenyl)imidazo[1,2-b]pyridazine-3-carboxamide], the IC50 in assay [2] was 12 nM.
For `Cc1nc(-c2cccc(NC(=O)c3cnc4c(Nc5ccccc5)cc(N[C@H]5CC[C@H](N)CC5)nn34)c2)cs1` [Example 7, 6-(trans-4-Aminocyclohexylamino)-N-(3-(2-methylthiazol-4-yl)phenyl)-8-(phenylamino)imidazo[1,2-b]pyridazine-3-carboxamide], the IC50 in assay [2] is 114 nM.
Same read-out and setting: under `N[C@H]1CC[C@H](Nc2cc(Nc3ccccc3)c3ncc(-c4ccsc4)n3n2)CC1` [Example 17, N^6-(trans-4-Aminocyclohexyl)-N^8-phenyl-3-(thiophen-3-yl)imidazo[1,2-b]pyridazine-6,8-diamine] stands 10 nM; under `COc1ccc(Nc2cc(N[C@H]3CC[C@H](N)CC3)nn3c(-c4ccsc4)cnc23)cc1` [Example 22, N^6-(trans-4-Aminocyclohexyl)-N^8-(4-methoxyphenyl)-3-(thiophen-3-yl)imidazo[1,2-b]pyridazine-6,8-diamine], 9 nM.
In assay [2], `Cc1nc(-c2cccc(NC(=O)c3cnc4ccc(N[C@H]5CC[C@H](N)CC5)nn34)c2)co1` [Example 15, 6-(trans-4-Aminocyclohexylamino)-N-(3-(2-methyloxazol-4-yl)phenyl)imidazo[1,2-b]pyridazine-3-carboxamide] had an IC50 of 342 nM.
`CC(C)c1nnc(-c2cccc(NC(=O)c3cnc4ccc(N[C@H]5CC[C@H](N)CC5)nn34)c2)s1` [Example 12, 6-(trans-4-Aminocyclohexylamino)-N-(3-(5-isopropyl-1,3,4-thiadiazol-2-yl)phenyl)imidazo[1,2-b]pyridazine-3-carboxamide] returned an IC50 in assay [2] of 9.1 nM.
On to `CNc1cc(N[C@H]2CC[C@H](N)CC2)nn2c(C(=O)Nc3cccc(-c4noc(C(C)C)n4)c3)cnc12` [Example 10, 6-(trans-4-Aminocyclohexylamino)-N-(3-(5-isopropyl-1,2,4-oxadiazol-3-yl)phenyl)-8-(methylamino)imidazo[1,2-b]pyridazine-3-carboxamide], for which the concentration for half-maximal inhibition (IC50) in assay [2] was 16 nM.
In turn, `Cc1nc(-c2cccc(NC(=O)c3cnc4c(Nc5ccccc5)cc(N[C@H]5CC[C@H](N)CC5)nn34)c2)co1` [Example 5, 6-(trans-4-Aminocyclohexylamino)-N-(3-(2-methyloxazol-4-yl)phenyl)-8-(phenylamino)imidazo[1,2-b]pyridazine-3-carboxamide] had an IC50 in assay [2] of 79 nM.
In the case of `CNc1cc(N[C@H]2CC[C@H](N)CC2)nn2c(-c3ccsc3)cnc12` [Example 20, N^6-(trans-4-Aminocyclohexyl)-N^8-methyl-3-(thiophen-3-yl)imidazo[1,2-b]pyridazine-6,8-diamine], half-maximal inhibition in assay [2] (IC50) required 38 nM.
`CC(C)n1nnc(-c2cccc(NC(=O)c3cnc4c(Nc5ccccc5)cc(N[C@H]5CC[C@H](N)CC5)nn34)c2)n1` [Example 4, 6-(trans-4-Aminocyclohexylamino)-N-(3-(2-isopropyl-2H-tetrazol-5-yl)phenyl)-8-(phenylamino)imidazo[1,2-b]pyridazine-3-carboxamide] returned an IC50 in assay [2] of 5.1 nM.
In assay [2], `CC(C)c1nc(-c2cccc(NC(=O)c3cnc4ccc(N[C@H]5CC[C@H](N)CC5)nn34)c2)co1` [Example 14, 6-(trans-4-Aminocyclohexylamino)-N-(3-(2-isopropyloxazol-4-yl)phenyl)imidazo[1,2-b]pyridazine-3-carboxamide] showed an IC50 of 158 nM.
For the molecule `N[C@H]1CC[C@H](Nc2ccc3ncc(C(=O)Nc4cccc(-c5coc(-c6ccccc6)n5)c4)n3n2)CC1` [Example 16, 6-(trans-4-Aminocyclohexylamino)-N-(3-(2-phenyloxazol-4-yl)phenyl)imidazo[1,2-b]pyridazine-3-carboxamide], the half-maximal inhibitory concentration (IC50) in assay [2] was found to be 154 nM.
For `CC(C)c1nc(-c2cccc(NC(=O)c3cnc4c(Nc5ccccc5)cc(N[C@H]5CC[C@H](N)CC5)nn34)c2)no1` [Example 1, 6-(trans-4-Aminocyclohexylamino)-N-(3-(5-isopropyl-1,2,4-oxadiazol-3-yl)phenyl)-8-(phenylamino)imidazo[1,2-b]pyridazine-3-carboxamide], the Response in assay [1] (60 mg/kg sc) is 59%. Besides, inhibition in assay [2] was half-maximal at 10 nM (IC50).
For `CC(C)c1nc(-c2cccc(NC(=O)c3cnc4ccc(N[C@H]5CC[C@H](N)CC5)nn34)c2)no1` [Example 11, 6-(trans-4-Aminocyclohexylamino)-N-(3-(5-isopropyl-1,2,4-oxadiazol-3-yl)phenyl)imidazo[1,2-b]pyridazine-3-carboxamide], the IC50 in assay [2] was 27 nM.
The same measure, in the same setting: under `N[C@H]1CC[C@H](Nc2cc(NC3CC3)c3ncc(-c4ccsc4)n3n2)CC1` [Example 21, N^6-(trans-4-Aminocyclohexyl)-N^8-cyclopropyl-3-(thiophen-3-yl)imidazo[1,2-b]pyridazine-6,8-diamine] stands 40 nM; under `CC(C)c1nnc(-c2cccc(NC(=O)c3cnc4c(Nc5ccccc5)cc(N[C@H]5CC[C@H](N)CC5)nn34)c2)s1` [Example 2, 6-(trans-4-Aminocyclohexylamino)-N-(3-(5-isopropyl-1,3,4-thiadiazol-2-yl)phenyl)-8-(phenylamino)imidazo[1,2-b]pyridazine-3-carboxamide], 11 nM.
